Results: ChEMBL document CHEMBL5244281, “Tackling multidrug-resistant Staphylococcus aureus by natural products and their analogues acting as NorA efflux pump inhibitors” (Bioorg Med Chem, 2023)
Values after ≈ are worked out from the molar mass of the structure shown.

How the values were obtained:
[1] = test system: Staphylococcus aureus; assay: Synergistic antimicrobial activity against Staphylococcus aureus 1199B overexpressing NorA efflux pump assessed as reduction in norfloxacin MIC incubated for 24 hrs by MTT colorimetric assay (Rvb= […]); format: functional
[2] = test system: Staphylococcus aureus; assay: Synergistic antimicrobial activity against Staphylococcus aureus 1199B overexpressing NorA efflux pump assessed as fractional inhibitory concentration index incubated for 24 hrs by checkerboard method; format: functional
[3] = test system: Staphylococcus aureus; assay: Antibacterial activity against wild type Staphylococcus aureus ATCC 25923 assessed as bacterial growth inhibition incubated for 24 hrs by resazurin based microdilution assay; format: functional
[4] = test system: Staphylococcus aureus; assay: Antibacterial activity against Staphylococcus aureus IS-58 overexpressing TetK efflux protein assessed as bacterial growth inhibition incubated for 24 hrs by resazurin based microdilution assay; format: functional
[5] = test system: Staphylococcus aureus; assay: Antibacterial activity against Staphylococcus aureus RN4220 overexpressing […] efflux protein assessed as bacterial growth inhibition incubated for 24 hrs by resazurin based microdilution assay; format: functional
[6] = test system: Staphylococcus aureus; assay: Antibacterial activity against Staphylococcus aureus 1199B overexpressing NorA efflux protein assessed as bacterial growth inhibition incubated for 24 hrs by resazurin based microdilution assay; format: functional
[7] = test system: Staphylococcus aureus; assay: Antibacterial activity against Staphylococcus aureus K2068 overexpressing mepA gene assessed as bacterial growth inhibition incubated for 24 hrs by resazurin based microdilution assay; format: functional
[8] = test system: Staphylococcus aureus; assay: Antibacterial activity against Staphylococcus aureus K4414 overexpressing qacA/B gene assessed as bacterial growth inhibition incubated for 24 hrs by resazurin based microdilution assay; format: functional
[9] = test system: Staphylococcus aureus; assay: Antibacterial activity against Staphylococcus aureus K4100 overexpressing qacC gene assessed as bacterial growth inhibition incubated for 24 hrs by resazurin based microdilution assay; format: functional
[10] = biological target: T1, Quinolone resistance protein NorA (Staphylococcus aureus) (UniProt P0A0J7); assay: Modulation of norfloxacin-induced inhibition of NorA efflux pump in Staphylococcus aureus 1199B overexpressing NorA efflux pump assessed as reduction in norfloxacin MIC at 1/4 times of MIC by resazurin based assay
T1 sequence (whole entry): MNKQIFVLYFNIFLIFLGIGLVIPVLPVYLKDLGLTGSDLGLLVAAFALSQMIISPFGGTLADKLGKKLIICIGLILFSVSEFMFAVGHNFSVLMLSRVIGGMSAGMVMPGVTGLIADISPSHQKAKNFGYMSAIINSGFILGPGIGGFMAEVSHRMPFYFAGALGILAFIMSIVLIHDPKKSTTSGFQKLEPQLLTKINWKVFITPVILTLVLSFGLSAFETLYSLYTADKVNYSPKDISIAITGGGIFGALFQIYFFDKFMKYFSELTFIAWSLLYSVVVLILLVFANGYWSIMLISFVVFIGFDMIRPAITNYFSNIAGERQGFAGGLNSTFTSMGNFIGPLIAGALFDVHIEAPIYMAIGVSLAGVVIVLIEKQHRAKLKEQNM

[11] = test system: Staphylococcus aureus; assay: Antibacterial activity against norfloxacin resistant Staphylococcus aureus 1199B overexpressing NorA assessed as bacterial growth inhibition incubated for 24 hrs by resazurin based microdilution assay; format: functional
[12] = test system: Staphylococcus aureus; assay: Antibacterial activity against methicillin-resistant Staphylococcus aureus 1199B overexpressing NorA gene assessed as bacterial growth inhibition; format: functional
[13] = test system: Staphylococcus aureus; assay: Antibacterial activity against norfloxacin resistant Staphylococcus aureus 1199 assessed as bacterial growth inhibition incubated for 24 hrs by resazurin based broth microdilution method; format: functional
[14] = test system: Staphylococcus aureus; assay: Antibacterial activity against norfloxacin resistant Staphylococcus aureus 1199B overexpressing NorA assessed as bacterial growth inhibition incubated for 24 hrs by resazurin based broth microdilution method; format: functional
[15] = test system: Staphylococcus aureus; assay: Antibacterial activity against Staphylococcus aureus 1199B expressing NorA efflux protein assessed as bacterial growth inhibition incubated for 24 hrs by resazurin based microdilution assay; format: functional
[16] = test system: Staphylococcus aureus; assay: Antibacterial activity against wild type Staphylococcus aureus 1199 assessed as bacterial growth inhibition incubated for 24 hrs by resazurin based microdilution assay; format: functional
[17] = biological target: T1, Quinolone resistance protein NorA (Staphylococcus aureus); assay: Inhibition of NorA efflux pump in Staphylococcus aureus 1199B overexpressing NorA efflux pump assessed as norfloxacin MIC at 1/8 times of MIC using norfloxacin as substrate incubated for 24 hrs by resazurin based assay (Rvb= 406.37 ug/ml)
[18] = biological target: T1, Quinolone resistance protein NorA (Staphylococcus aureus); assay: Inhibition of NorA efflux pump in Staphylococcus aureus 1199 assessed as norfloxacin MIC at 1/8 times of MIC using norfloxacin as substrate incubated for 24 hrs by resazurin based assay (Rvb= 32 ug/ml)
[19] = biological target: T1, Quinolone resistance protein NorA (Staphylococcus aureus); assay: Inhibition of NorA efflux pump in Staphylococcus aureus 1199B overexpressing NorA efflux pump assessed as EtBr MIC at 1/8 times of MIC using EtBr as substrate incubated for 24 hrs by resazurin based assay (Rvb= 256 ug/ml)
[20] = biological target: T1, Quinolone resistance protein NorA (Staphylococcus aureus); assay: Inhibition of NorA efflux pump in Staphylococcus aureus 1199 assessed as EtBr MIC at 1/8 times of MIC using EtBr as substrate incubated for 24 hrs by resazurin based assay (Rvb= 256 ug/ml)
[21] = biological target: T1, Quinolone resistance protein NorA (Staphylococcus aureus); assay: Potentiation of norfloxacin-induced inhibition of NorA efflux pump in Staphylococcus aureus 1199A assessed as reduction in norfloxacin MIC at 1/8 times of MIC incubated for 24 hrs by resazurin based broth microdilution method (Rvb= […] ug/ml)
[22] = biological target: T1, Quinolone resistance protein NorA (Staphylococcus aureus); assay: Potentiation of norfloxacin-induced inhibition of NorA efflux pump in Staphylococcus aureus 1199B overexpressing NorA efflux pump assessed as reduction in norfloxacin MIC at 1/8 times of MIC incubated for 24 hrs by resazurin based broth microdilution method (Rvb= 128 ug/ml)
[23] = biological target: T1, Quinolone resistance protein NorA (Staphylococcus aureus); assay: Potentiation of EtBr-induced inhibition of NorA efflux pump in Staphylococcus aureus 1199A assessed as reduction in EtBr MIC at 1/8 times of MIC incubated for 24 hrs by resazurin based broth microdilution method (Rvb=32 ug/ml)
[24] = biological target: T1, Quinolone resistance protein NorA (Staphylococcus aureus); assay: Potentiation of EtBr-induced inhibition of NorA efflux pump in Staphylococcus aureus 1199B overexpressing NorA efflux pump assessed as reduction in EtBr MIC at 1/8 times of MIC incubated for 24 hrs by resazurin based broth microdilution method (Rvb= 32 ug/ml)
[25] = test system: Staphylococcus aureus; assay: Antibacterial activity against Staphylococcus aureus 1199B overexpressing NorA assessed as bacterial growth inhibition incubated for 18 hrs by MTT assay; format: functional
[26] = test system: Staphylococcus aureus; assay: Antibacterial activity against tetracycline-resistant Staphylococcus aureus XU212 assessed as bacterial growth inhibition incubated for 18 hrs by MTT assay; format: functional
[27] = test system: Staphylococcus aureus; assay: Antibacterial activity against Staphylococcus aureus ATCC25923 assessed as bacterial growth inhibition incubated for 18 hrs by MTT assay; format: functional
[28] = test system: Staphylococcus aureus; assay: Antibacterial activity against Staphylococcus aureus RN4220 assessed as bacterial growth inhibition incubated for 18 hrs by MTT assay; format: functional
[29] = test system: Staphylococcus aureus; assay: Antibacterial activity against Staphylococcus aureus EMRSA-15 assessed as bacterial growth inhibition incubated for 18 hrs by MTT assay; format: functional
[30] = test system: Staphylococcus aureus; assay: Antibacterial activity against Staphylococcus aureus 1199 assessed as bacterial growth inhibition incubated for 24 hrs by broth microdilution method; format: functional
[31] = test system: Staphylococcus aureus; assay: Antibacterial activity against Staphylococcus aureus 1199B overexpressing NorA efflux gene assessed as bacterial growth inhibition incubated for 24 hrs by broth microdilution method; format: functional
[32] = test system: Staphylococcus aureus; assay: Antibacterial activity against NorA knockout Staphylococcus aureus K1758 assessed as bacterial growth inhibition incubated for 24 hrs by broth microdilution method; format: functional

C=CC[C@]12C=C(OC)C(=O)[C@H]([C@@H](c3ccc4c(c3)OCO4)[C@@H]1C)[C@@H]2OC(C)=O
MIC [1]: 16 µg/mL | fractional inhibitory concentration index (FICI) [2]: 0.25

COC(=O)c1cc(/C=C/C(=O)c2cccc(O)c2)ccc1OC
MIC [3]: 100 µg/mL (≈ 320 µM) | MIC [4]: 100 µg/mL (≈ 320 µM) | MIC [5]: 100 µg/mL (≈ 320 µM) | MIC [6]: 100 µg/mL (≈ 320 µM) | MIC [7]: 100 µg/mL (≈ 320 µM) | MIC [8]: 100 µg/mL (≈ 320 µM) | MIC [9]: 100 µg/mL (≈ 320 µM)

C[C@@H]1O[C@@H](Oc2c(-c3ccc(O)c(O)c3)oc3cc(O)cc(O)c3c2=O)[C@H](O)[C@H](O)[C@H]1O
MIC [10]: 64 µg/mL

CCn1cc(C(=O)O)c(=O)c2cc(F)c(N3CCNCC3)cc21 [NORFLOXACIN]
MIC [11]: 64 µg/mL (≈ 200 µM) | MIC [12]: 32 µg/mL (≈ 100 µM)

C/C=C/c1ccc(O)c(OC)c1
MIC [13]: 40.3 µg/mL (≈ 245 µM) | MIC [14]: 32 µg/mL (≈ 195 µM)

O=C(OC[C@]1(O)[C@H](OC(=O)c2ccccc2)C=C[C@@H](OC(=O)c2ccccc2)[C@@H]1O)c1ccccc1
MIC [1]: 32 µg/mL | fractional inhibitory concentration index (FICI) [2]: 0.52

COc1ccc(/C=C/C(=O)c2ccc(O)cc2)cc1OC
MIC [3]: 100 µg/mL (≈ 352 µM) | MIC [4]: 100 µg/mL (≈ 352 µM) | MIC [5]: 100 µg/mL (≈ 352 µM) | MIC [6]: 100 µg/mL (≈ 352 µM) | MIC [7]: 100 µg/mL (≈ 352 µM) | MIC [8]: 100 µg/mL (≈ 352 µM) | MIC [9]: 100 µg/mL (≈ 352 µM)

CC(C)=CCC1=C(NCCCO)C(=O)c2ccccc2C1=O
MIC [15]: ≥ 1020 µg/mL | MIC [16]: ≥ 1020 µg/mL | MIC [17]: 102 µg/mL | MIC [18]: 4 µg/mL | MIC [19]: 64 µg/mL | MIC [20]: 32 µg/mL

COc1cc(O)c2c(=O)c(OC)c(-c3ccc(O)c(OC)c3)oc2c1 [PACHYPODOL]
MIC [12]: 256 µg/mL (≈ 743 µM)

C[C@@H]1O[C@@H](Oc2c(-c3cc(O)c(O)c(O)c3)oc3cc(O)cc(O)c3c2=O)[C@H](O)[C@H](O)[C@H]1O
MIC [10]: 32 µg/mL

Cc1ccc(C(C)C)cc1O [CARVACROL]
MIC [13]: 256 µg/mL (≈ 1700 µM) | MIC [14]: 256 µg/mL (≈ 1700 µM) | MIC [21]: 32 µg/mL | MIC [22]: 64 µg/mL | MIC [23]: 25.4 µg/mL | MIC [24]: 16 µg/mL

COc1ccc(-c2oc3cc(OC)c(OC)c(O)c3c(=O)c2OC)cc1OC [ARTEMETIN]
MIC [12]: 256 µg/mL (≈ 659 µM)

C=CCc1ccccc1 [ALLYLBENZENE]
MIC [13]: > 1020 µg/mL | MIC [14]: > 1020 µg/mL

CC(C)=CCC1=C(NCCO)C(=O)c2ccccc2C1=O
MIC [15]: ≥ 1020 µg/mL | MIC [16]: ≥ 1020 µg/mL | MIC [17]: 80 µg/mL | MIC [18]: 1 µg/mL | MIC [19]: 32 µg/mL | MIC [20]: 16 µg/mL

COc1ccc(-c2coc3cc(O)cc(O)c3c2=O)cc1O [PRATENSEIN]
MIC [25]: 32 µg/mL (≈ 107 µM) | MIC [26]: 32 µg/mL (≈ 107 µM) | MIC [27]: 32 µg/mL (≈ 107 µM) | MIC [28]: 32 µg/mL (≈ 107 µM) | MIC [29]: 32 µg/mL (≈ 107 µM)

O=C1C[C@@H](c2ccccc2)Oc2cc(O)cc(O)c21 [PINOCEMBRIN]
MIC [30]: 250 µg/mL (≈ 976 µM) | MIC [31]: 500 µg/mL (≈ 1950 µM) | MIC [32]: 250 µg/mL (≈ 976 µM)

Cc1ccc(C(C)C)c(O)c1 [THYMOL]
MIC [13]: 256 µg/mL (≈ 1700 µM) | MIC [14]: 256 µg/mL (≈ 1700 µM) | MIC [21]: 32 µg/mL | MIC [22]: 64 µg/mL | MIC [23]: 25.4 µg/mL | MIC [24]: 16 µg/mL
